Assay results published in paper PMC8617031, “Development of a BCL-xL and BCL-2 dual degrader with improved anti-leukemic activity,” (Nature Communications, 2021).
Several values for one entry are separate records, joined by “and”; a condition that tells them apart may be missing. Equal values may be shown once.

What was measured:
[1] = target: T1, BCL-xL (Homo sapiens, UniProt Q07817); assay: BCL-xL degradation by immunoblot in 293T cells; assay type: cell-based
T1 construct: endogenous in cells
T1 sequence (Q07817 whole entry): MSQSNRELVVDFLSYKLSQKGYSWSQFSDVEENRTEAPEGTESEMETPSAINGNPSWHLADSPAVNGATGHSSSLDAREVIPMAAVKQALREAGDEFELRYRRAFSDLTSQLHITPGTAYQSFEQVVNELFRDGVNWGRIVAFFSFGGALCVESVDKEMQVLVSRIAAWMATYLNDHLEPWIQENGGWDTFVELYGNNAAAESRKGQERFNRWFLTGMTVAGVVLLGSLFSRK
Method: (§1) The DC50 and Dmax were calculated using Prism based on the ImageJ-quantified western blots in Supplementary Fig. 4. c, d AlphaLISA assay to determine the formation of BCL-xL/PROTAC/VHL-ELOC-ELOB (VCB) (c) or BCL-2/PROTAC/VCB (d) ternary complex in a cell-free condition. Data represent the mean of a single experiment with 2 technical replicates. Similar results were obtained in one more independent experiment. e, f NanoBRET assays evaluating intracellular BCL-xL/PROTAC/VCB (e) or BCL-2/PROTAC/VCB (f) ternary complex formation. […] Data are expressed as mean ± s.e.m. of three biological replicates. Source data are provided as a Source data file.
(§2) Representative immunoblots are shown in (a–d) and β-actin was used as a loading control in all immunoblot analyses. The normalized protein content in the immunoblots is presented as mean values ± s.e.m. (n = 3 biologically independent experiments) in the bar graph (bottom panel). e, f The formation of BCL-xL/PROTAC/VCB (e) and BCL-2/PROTAC/VCB (f) ternary complexes in a cell-free condition was determined by AlphaLISA assay. Data represent the mean of a single experiment with 2 technical replicates. […] Source data are provided as a Source data file.
(§3) Cells were collected, washed once with ice-cold phosphate-buffered saline, pH 7.2 (PBS, cat. no. 20012027; Thermo Fisher Scientific) and lysed in RIPA lysis buffer (Cat. No. BP-115DG, Boston Bio Products, Ashland, MA, USA) supplemented with protease and phosphatase inhibitor cocktails (Cat. No. PPC1010, Sigma-Aldrich, St. Louis, MO, USA) through sonication. The samples were centrifuged at 14,000 r.p.m. for 5 min and the supernatants were transferred into a new tube. The protein concentration in the supernatants was determined using the Pierce BCA protein Assay kit (cat. no. 23225, Thermo Fisher Scientific). The protein concentration was normalized, and the samples were reduced in 4× Laemmli’s SDS-sample buffer (cat. no. BP-110R, Boston Bio Products) and denatured at 95 °C for 5 min. An equal amount of protein samples (20–40 μg per lane) were resolved using precast 4–20% Tris-glycine gels (Mini-PROTEAN TGX, cat. no. 456–1094, Bio-Rad), and resolved proteins were transferred onto 0.2-µm pore size polyvinylidene difluoride (PVDF) blotting membranes (cat. no. LC2002, Thermo Fisher Scientific) using mini trans-blot electrophoretic transfer cell (Bio-Rad). The membranes were blocked with non-fat dry milk (5% wt/vol) in 1× Tris-buffered saline-Tween-20 (TBST, cat. no. J77500, Affymetrix) for 1 h at room temperature, and were subsequently probed with primary antibodies at a predetermined optimal concentration in non-fat dry milk (5% wt/vol in TBST) overnight at 4 °C. The membranes were washed three times (5 min each) in TBST and then incubated with horse radish peroxidase (HRP)-conjugated secondary antibodies for 1 h at room temperature. Following sufficient washing with TBST, the membranes were exposed with chemiluminescent HRP substrate (cat. no. WBKLS0500, MilliporeSigma), and the signal was detected using the ChemiDoc MP Imaging System (Bio-Rad) and quantified using the ImageJ (v1.53a) software from NIH.

[2] = target: T2, BCL-2 (Homo sapiens, UniProt P10415); assay: BCL-2 degradation by immunoblot in 293T cells; assay type: cell-based; details: HEK-293T
T2 construct: endogenous in cells
T2 sequence (P10415 whole entry): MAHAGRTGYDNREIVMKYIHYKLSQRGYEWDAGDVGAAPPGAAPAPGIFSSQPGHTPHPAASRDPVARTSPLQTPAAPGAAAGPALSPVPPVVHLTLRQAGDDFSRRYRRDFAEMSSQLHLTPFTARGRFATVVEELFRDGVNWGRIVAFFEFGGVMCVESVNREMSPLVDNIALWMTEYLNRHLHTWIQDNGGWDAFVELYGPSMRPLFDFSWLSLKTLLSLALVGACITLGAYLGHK
Method: as §1, §2, §3

[3] = target: T3, BCL-xL/PROTAC/VHL-ELOC-ELOB (VCB) ternary complex (Homo sapiens, UniProt P40337+Q07817); assay: AlphaLISA ternary complex formation, cell-free, BCL-xL; assay type: binding; details: for AlphaLISA signal, BCL-xL/PROTAC/VCB: Fig. 2c raw Alpha reads
T3 construct: pGEX-6P-1-VHL(54-213) (pDL2200) was constructed through Gibson assembly method; made in house; host or cells: bacterial culture (LB broth, IPTG induction)
T3 sequence (Q07817 1-212 limits assumed): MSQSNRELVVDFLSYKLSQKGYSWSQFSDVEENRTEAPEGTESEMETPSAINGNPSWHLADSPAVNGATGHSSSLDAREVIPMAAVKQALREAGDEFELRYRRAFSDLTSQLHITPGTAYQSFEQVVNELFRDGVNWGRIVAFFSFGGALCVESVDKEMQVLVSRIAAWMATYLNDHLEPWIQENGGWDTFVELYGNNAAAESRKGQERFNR
T3 sequence (P40337 54-213 limits assumed): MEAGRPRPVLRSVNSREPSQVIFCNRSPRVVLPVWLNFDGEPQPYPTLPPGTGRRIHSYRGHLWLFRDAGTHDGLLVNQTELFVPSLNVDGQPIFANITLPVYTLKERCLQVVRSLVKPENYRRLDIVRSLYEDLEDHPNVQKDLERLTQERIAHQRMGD
T3 sequence (Q15369 17-112 partner limits assumed): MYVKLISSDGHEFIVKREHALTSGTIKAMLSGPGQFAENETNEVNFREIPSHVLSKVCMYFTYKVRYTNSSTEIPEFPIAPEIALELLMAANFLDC
T3 sequence (Q15370 whole entry partner): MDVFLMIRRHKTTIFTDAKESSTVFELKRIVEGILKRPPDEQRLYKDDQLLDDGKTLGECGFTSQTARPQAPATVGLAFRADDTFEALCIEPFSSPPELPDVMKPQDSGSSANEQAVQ
Method: (§4) AlphaLISA assay was used to evaluate the in vitro ternary complex formation between target proteins (BCL-xL or BCL-2), PROTAC and E3 ligase (VCB complex). In each well, 5 nM His-tagged BCL-xL or BCL-2 proteins and 5 nM GST-VCB complex was incubated with varying concentrations of compounds in fourfold serial dilutions, to a final volume of 40 µl in a 96-well PCR plate. After incubation at room temperature for 30 min, 5 µl alpha glutathione-donor beads (Cat. No. 6765300, PerkinElmer) were added to each well (20 µg/ml final concentration) and incubated for another 15 min. Thereafter, 5 µL 6× His-acceptor beads were added to each well (20 µg/ml final concentration) and incubated for an additional 45 min at room temperature. Thereafter, 17 µl of each sample was transferred in adjacent wells of a 384-well proxy plate, and the plate was scanned using the Alpha program on Biotek’s Synergy Neo2 multimode plate reader. The data were expressed as average AlphaLISA signal and plotted against different concentrations of compounds using GraphPad Prism 9 software.

[4] = target: T4, BCL-2/PROTAC/VCB ternary complex (Homo sapiens, UniProt P10415+P40337); assay: AlphaLISA ternary complex formation, cell-free, BCL-2; assay type: binding; details: for AlphaLISA signal, BCL-2/PROTAC/VCB: Fig. 2d raw Alpha reads
T4 construct: pGEX-6P-1-VHL(54-213) (pDL2200) was constructed through Gibson assembly method; made in house; host or cells: bacterial culture (LB broth, IPTG induction)
T4 sequence (P10415 1-211 limits assumed): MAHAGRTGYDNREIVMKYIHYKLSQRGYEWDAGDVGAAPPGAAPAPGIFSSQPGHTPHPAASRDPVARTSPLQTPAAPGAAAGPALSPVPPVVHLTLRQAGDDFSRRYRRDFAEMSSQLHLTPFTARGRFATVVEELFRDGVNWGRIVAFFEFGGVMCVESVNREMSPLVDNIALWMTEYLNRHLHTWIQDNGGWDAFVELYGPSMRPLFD
T4 sequence (P40337 54-213 limits assumed): as the sequence (P40337 54-213 limits assumed) above
T4 sequence (Q15369 17-112 partner limits assumed): as the sequence (Q15369 17-112 partner limits assumed) above
T4 sequence (Q15370 whole entry partner): as the sequence (Q15370 whole entry partner) above
Method: as §4

[5] = test system: Kasumi-1 cells; assay: Viability (MTS) of Kasumi-1 AML cells; assay type: cell-based, human; details: Fig. 7a

Cc1ncsc1-c1ccc([C@H](C)NC(=O)[C@@H]2C[C@@H](O)CN2C(=O)[C@@H](NC(=O)CCCC(=O)N2CCN(CC3(C)CCC(c4ccc(Cl)cc4)=C(CN4CCN(c5ccc(C(=O)NS(=O)(=O)c6ccc(N[C@H](CCN7CCOCC7)CSc7ccccc7)c(S(=O)(=O)C(F)(F)F)c6)cc5)CC4)C3)CC2)C(C)(C)C)cc1 (stereo partly drawn) [PPC5]
BCL-xL degradation (in words) ([1]; 293T cells, 16 h): partially degrade BCL-xL | DC50 ([1]; 293T cells, four concentrations, 16 h, Fig. 2b, read-out: BCL-xL DC50): 316 nM | Dmax ([1]; HEK-293T): 56% | Dmax [2]: 47% | in vitro ternary complex formation with BCL-xL (in words) ([3]; AlphaLISA, cell-free, Fig. 2c, 3e): stronger ternary complexes | AlphaLISA signal, BCL-xL/PROTAC/VCB ([3]; compound 0.191 nM): 14064 and 15339 | AlphaLISA signal, BCL-xL/PROTAC/VCB ([3]; compound 0.763 nM): 16647 and 16446 | AlphaLISA signal, BCL-xL/PROTAC/VCB ([3]; compound 3.052 nM): 29664 and 30068 | AlphaLISA signal, BCL-xL/PROTAC/VCB ([3]; compound 12.207 nM): 308120 and 297735 | AlphaLISA signal, BCL-xL/PROTAC/VCB ([3]; compound 48.828 nM): 915794 and 868616 | AlphaLISA signal, BCL-xL/PROTAC/VCB ([3]; compound 195.31 nM): 760327 and 820012 | AlphaLISA signal, BCL-xL/PROTAC/VCB ([3]; compound 781.25 nM): 680312 and 708753 | AlphaLISA signal, BCL-xL/PROTAC/VCB ([3]; compound 3125 nM): 257573 and 298187 | AlphaLISA signal, BCL-xL/PROTAC/VCB ([3]; compound 12500 nM): 45345 and 53654 | AlphaLISA signal, BCL-xL/PROTAC/VCB ([3]; compound 50000 nM): 21182 and 20463 | in vitro ternary complex formation with BCL-2 (in words) ([4]; AlphaLISA, cell-free, Fig. 2d, 3f): stronger ternary complexes | AlphaLISA signal, BCL-2/PROTAC/VCB ([4]; compound 0.191 nM): 15183 and 13115 | AlphaLISA signal, BCL-2/PROTAC/VCB ([4]; compound 0.763 nM): 15317 and 19455 | AlphaLISA signal, BCL-2/PROTAC/VCB ([4]; compound 3.052 nM): 45755 and 47236 | AlphaLISA signal, BCL-2/PROTAC/VCB ([4]; compound 12.207 nM): 410345 and 373015 | AlphaLISA signal, BCL-2/PROTAC/VCB ([4]; compound 48.828 nM): 1136924 and 1140765 | AlphaLISA signal, BCL-2/PROTAC/VCB ([4]; compound 195.31 nM): 1286256 and 1221888 | AlphaLISA signal, BCL-2/PROTAC/VCB ([4]; compound 781.25 nM): 709163 and 786788 | AlphaLISA signal, BCL-2/PROTAC/VCB ([4]; compound 3125 nM): 91120 and 92885 | AlphaLISA signal, BCL-2/PROTAC/VCB ([4]; compound 12500 nM): 18341 and 15512

Cc1c(-c2c(-c3ccc(F)o3)sc3ncnc(O[C@H](Cc4ccccc4OCc4ccnn4CC(F)(F)F)C(=O)O)c23)ccc(OCCN2CCN(C)CC2)c1Cl [S63845]
Luminescence (raw plate reading) ([5]; 3.90625 nM (plate column 2)): 585765 and 593361 and 588702 and 615617 | Luminescence (raw plate reading) ([5]; 7.8125 nM (plate column 3)): 614886 and 587762 and 581843 and 642033 | Luminescence (raw plate reading) ([5]; 15.625 nM (plate column 4)): 585793 and 568144 and 557931 and 596587 | Luminescence (raw plate reading) ([5]; 31.25 nM (plate column 5)): 583012 and 572945 and 570605 and 624151 | Luminescence (raw plate reading) ([5]; 62.5 nM (plate column 6)): 545426 and 545383 and 550949 and 588219 | Luminescence (raw plate reading) ([5]; 125 nM (plate column 7)): 511944 and 516519 and 502413 and 546675 | Luminescence (raw plate reading) ([5]; 250 nM (plate column 8)): 434681 and 438403 and 429749 and 470053 | Luminescence (raw plate reading) ([5]; 500 nM (plate column 9)): 365024 and 363596 and 364210 and 384218 | Luminescence (raw plate reading) ([5]; 1000 nM (plate column 10)): 263752 and 271433 and 266762 and 285013 | Luminescence (raw plate reading) ([5]; 2000 nM = 2U (plate column 11)): 165813 and 178184 and 172580 and 186041 | Luminescence (raw plate reading) ([5]; 4000 nM = 4U (plate column 12)): 112826 and 107734 and 101511 and 111059 | Luminescence normalised to mean of the 0 concentration wells (= 100), viability ([5]; 3.90625 (nM)): 85.5833 and 86.6931 and 86.0124 and 89.9448 | Luminescence normalised to mean of the 0 concentration wells (= 100), viability ([5]; 7.8125 (nM)): 89.838 and 85.875 and 85.0102 and 93.8043 | Luminescence normalised to mean of the 0 concentration wells (= 100), viability ([5]; 15.625 (nM)): 85.5874 and 83.0087 and 81.5166 and 87.1644 | Luminescence normalised to mean of the 0 concentration wells (= 100), viability ([5]; 31.25 (nM)): 85.181 and 83.7102 and 83.3683 and 91.1917 | Luminescence normalised to mean of the 0 concentration wells (= 100), viability ([5]; 62.5 (nM)): 79.6895 and 79.6832 and 80.4965 and 85.9418 | Luminescence normalised to mean of the 0 concentration wells (= 100), viability ([5]; 125 (nM)): 74.7976 and 75.4661 and 73.4051 and 79.872 | Luminescence normalised to mean of the 0 concentration wells (= 100), viability ([5]; 250 (nM)): 63.5091 and 64.0529 and 62.7885 and 68.6771 | Luminescence normalised to mean of the 0 concentration wells (= 100), viability ([5]; 500 (nM)): 53.3319 and 53.1232 and 53.2129 and 56.1362 | Luminescence normalised to mean of the 0 concentration wells (= 100), viability ([5]; 1000 (nM)): 38.5355 and 39.6577 and 38.9753 and 41.6419 | Luminescence normalised to mean of the 0 concentration wells (= 100), viability ([5]; 2000 (nM, 2U)): 24.2261 and 26.0336 and 25.2148 and 27.1815 | Luminescence normalised to mean of the 0 concentration wells (= 100), viability ([5]; 4000 (nM, 4U)): 16.4845 and 15.7405 and 14.8313 and 16.2263 | IC50 ([5]; 72 h, read-out: IC50, viability of Kasumi-1 AML cells): 527 nM
